# In patent US20230372382A1, “USE OF ADENOSINE DIPHOSPHATE RIBOSE FOR ADJUVANT THERAPY WITH RADIATION AND/OR ANTI-CANCER TREATMENT” (PearlsInMires Co., Ltd., priority 2021, published 2023):
# Key:
# [1] = system: Colon cancer (HCT116) cells; experiment: Cell death by combination treatment with anti-cancer drug (MTT); assay type: cell-based; conditions: Homo sapiens, HCT-116; HCT116, 5-FU 10 μM alone, 24 hours; read-out: cancer cells survived (cell viability)
# [2] = system: Pancreatic cancer (AsPC-1) cells; experiment: as above; assay type: cell-based; conditions: Homo sapiens, ASPC1, 24 h; read-out: cancer cells survived (cell viability)
# [3] = system: Lung cancer (H1975) cells; experiment: Xenograft model, combination with anti-cancer drug, tumor volume; assay type: in vivo, BALB/c nude mice; conditions: osimertinib 1 mg/kg oral twice a week alone
# Description: (§1) Brain (U-87MG), lung (H1975), pancreatic (AsPC-1), or liver (Hep G2) cells (1×10^7 cells) were inoculated into 5-week-old BALB/c nude mice on the back flank, respectively. Then, when tumors were grown to a volume of approximately 150 mm^3, the mice were divided into the control group (control), an anti-cancer drug alone treatment group, and a combination treatment group. […] The tumor size was measured every 6 days using a digital caliper, and the results of changes in tumor volume were compared by the group.
# Lung cancer (H1975) cells (1×10^7) were inoculated into 5-week-old BALB/c nude mice on the back flank, and the mice were divided into three groups: the control group (Control), single oral administration of 1 mg/kg of osimertinib, and combination administration of osimertinib+10 mg/kg of ADP-ribose. When the tumors were grown to a volume of approximately 150 mm^3, osimertinib was administered orally twice a week, and ADP-ribose at 10 mg/kg was injected subcutaneously 3 times a week. The tumor size was measured using a digital caliper, and the results of changes in tumor volume were compared by the group.
# [4] = system: Lung cancer (H1975) cells; experiment: Cell death by combination treatment with anti-cancer drug (MTT); assay type: cell-based; conditions: Homo sapiens, NCI-H1975; H1975, osimertinib 1 nM alone, 24 hours; read-out: cancer cells survived (cell viability)
# [5] = system: Liver cancer (Hep G2) cells; experiment: Xenograft model, combination with anti-cancer drug, tumor volume; assay type: in vivo, BALB/c nude mice; conditions: sorafenib 10 mg/kg oral 5 times a week alone
# Description: as §1
# Liver cancer (Hep G2) cells (1×10^7) were inoculated into 5-week-old BALB/c nude mice on the back flank, and the mice were divided into three groups: the control group (Control), single oral administration of 10 mg/kg of sorafenib, and combination administration of sorafenib+10 mg/kg of ADP-ribose. When the tumors were grown to a volume of approximately 150 mm^3, sorafenib was administered orally 5 times a week, and ADP-ribose at 10 mg/kg was injected subcutaneously 3 times a week. The tumor size was measured using a digital caliper, and the results of changes in tumor volume were compared by the group.
# [6] = system: Liver cancer (Hep G2) cells; experiment: Cell death by combination treatment with anti-cancer drug (MTT); conditions: Homo sapiens, HepG2, 24 h, read-out: cancer cells survived (cell viability)
# [7] = system: Brain cancer (U-87MG) cells; experiment: Xenograft model, combination with anti-cancer drug, tumor volume; assay type: in vivo, BALB/c nude mice; conditions: U-87MG xenograft, Avastin 25 mg/kg intraperitoneal twice a week alone
# Description: as §1
# Brain cancer (U-87MG) cells (1×10^7) were inoculated into 5-week-old BALB/c nude mice on the back flank, and the mice were divided into three groups: the control group (Control), single intraperitoneal administration of 25 mg/kg of Avastin (ingredient name: bevacizumab), and combination administration of Avastin+10 mg/kg of ADP-ribose. When the tumors were grown to a volume of approximately 150 mm^3, Avastin was administered intraperitoneally twice a week, and ADP-ribose at 10 mg/kg was injected subcutaneously 3 times a week. The tumor size was measured using a digital caliper, and the results of changes in tumor volume were compared by the group.
compound,measurement,setting,value
"O=c1[nH]cc(F)c(=O)[nH]1 [5-FU, 5-fluorouracil, reference compound]",viability at 10 µM,[1],~51%
"Nc1ccn([C@@H]2O[C@H](CO)[C@@H](O)C2(F)F)c(=O)n1 [gemcitabine, reference compound]",viability at 1 µM,[2],~54%
"C=CC(=O)Nc1cc(Nc2nccc(-c3cn(C)c4ccccc34)n2)c(OC)cc1N(C)CCN(C)C [osimertinib, reference compound]",final tumor volume lower than that of the control group,[3],about 17%
same,final tumor volume,[3]; control about 2265.5,about 1881.9 mm^3
same,viability at 0.001 µM,[4],~50%
"CNC(=O)c1cc(Oc2ccc(NC(=O)Nc3ccc(Cl)c(C(F)(F)F)c3)cc2)ccn1 [sorafenib, reference compound]",final tumor volume lower than that of the control group,[5],about 20%
same,final tumor volume,[5]; control about 2322.4,about 1849.8 mm^3
same,viability at 1 µM,[6],~49%
bevacizumab: anti-VEGF monoclonal antibody; Avastin (ingredient name: bevacizumab) [reference compound],final tumor volume lower than that of the control group,[7],about 37%
same,final tumor volume,[7]; control about 2527.1,about 1598.9 mm^3
